This note sets out measurements from US20120202690A1, “HERBICIDAL COMPOUNDS” (SYNGENTA LIMITED, priority 2009, published 2012).

Molecules are shown by their SMILES.

Data set [1] deals with Solanum nigrum (SOLNI). Briefly: Post-emergence biological efficacy, glasshouse, 500 or 1000 g/ha, evaluated after 13 days (100=total damage to plant; 0=no damage to plant). The class given is in vivo. Conditions: Solanum nigrum, 312 h, read-out: Percentage damage caused to weed species, post-emergence, SOLNI; for pest or weed control at 1000 g/ha: rate 1,000 g/ha. Summed up:
(§1)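 Standard soil, potted from seed; post-emergence treatment; glasshouse 24/16° C. (day/night), 14 h light, 65% humidity; watering twice daily.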

Data set [2] has as its system Alopecurus myosuroides (ALOMY). Described as above. The class given is in vivo. Conditions: Alopecurus myosuroides, 312 h, read-out: Percentage damage caused to weed species, post-emergence, ALOMY; for pest or weed control at 1000 g/ha: rate 1,000 g/ha. In short, it runs like this: as §1
Data set [3] concerns Echinochloa crusgaffi (ECHCG). Described as above. The class given is in vivo. To be noted: Echinochloa, 312 h, read-out: Percentage damage caused to weed species, post-emergence, ECHCG; for pest or weed control at 1000 g/ha: rate 1,000 g/ha. Summed up: as §1
Data set [4] deals with Setaria faberi (SETFA). Described as above. The class given is in vivo. To be noted: Setaria faberi, 312 h, read-out: Percentage damage caused to weed species, post-emergence, SETFA; for pest or weed control at 1000 g/ha: rate 1,000 g/ha. In short, it runs like this: as §1
Data set [5] deals with Amaranthus retroflexus (AMARE). Described as above. Type of data set: in vivo. To be noted: Amaranthus retroflexus, 312 h, read-out: Percentage damage caused to weed species, post-emergence, AMARE; for pest or weed control at 1000 g/ha: rate 1,000 g/ha. Summed up:
as §1

The subject of data set [6] is Ipomoea hederaceae (IPOHE). The data set is described as above. To be noted: Ipomoea, 312 h, read-out: Percentage damage caused to weed species, post-emergence, IPOHE; for pest or weed control at 1000 g/ha: rate 1,000 g/ha. Type of data set: in vivo. In short, it runs like this:
as §1

Data set [7] relates to Solanum nigrum (SOLNI). Briefly: Pre-emergence biological efficacy, glasshouse, 1000 g/ha, evaluated after 13 days (100=total damage to plant; 0=no damage to plant). Type of data set: in vivo. Conditions: Solanum nigrum, 312 h, read-out: Percentage damage caused to weed species, pre-emergence, SOLNI; for pest or weed control at 1000 g/ha: rate 1,000 g/ha. In short, it runs like this: (§2)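 Seeds were sown in standard soil in pots, then grown in a controlled glasshouse at 24/16° C. day/night, 14 hours light and 65% humidity, with watering twice daily.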

Data set [8] concerns Alopecurus myosuroides (ALOMY). The data set is described as above. Type of data set: in vivo. To be noted: Alopecurus myosuroides, 312 h, read-out: Percentage damage caused to weed species, pre-emergence, ALOMY; for pest or weed control at 1000 g/ha: rate 1,000 g/ha. Summed up: as §2
The subject of data set [9] is Setaria faberi (SETFA). Described as above. The class given is in vivo. Conditions: Setaria faberi, 312 h, read-out: Percentage damage caused to weed species, pre-emergence, SETFA; for pest or weed control at 1000 g/ha: rate 1,000 g/ha. Summed up:
as §2

The test system of data set [10] is Amaranthus retroflexus (AMARE). Described as above. The class given is in vivo. To be noted: Amaranthus retroflexus, 312 h, read-out: Percentage damage caused to weed species, pre-emergence, AMARE; for pest or weed control at 1000 g/ha: rate 1,000 g/ha. In short, it runs like this: as §2
The test system of data set [11] is Ipomoea hederaceae (IPOHE). Described as above. Conditions: Ipomoea, 312 h, read-out: Percentage damage caused to weed species, pre-emergence, IPOHE; for pest or weed control at 1000 g/ha: rate 1,000 g/ha. The class given is in vivo. In short, it runs like this: as §2
Data set [12] has as its system Echinochloa crus-galli (ECHCG). The description is as above. Conditions: Echinochloa crus-galli, 312 h, read-out: Percentage damage caused to weed species, pre-emergence, ECHCG; for pest or weed control at 1000 g/ha: rate 1,000 g/ha. The class given is in vivo. In short, it runs like this:
as §2

The term melting point denotes the temperature, or range, at which the solid turns liquid. `CCOCn1cc(C)c2c(C(=O)OC)nc(-c3ccc(Cl)c(OC)c3F)nc21` [Compound 3-64, 2-(4-chloro-2-fluoro-3-methoxyphenyl)-7-ethoxymethyl-4-methoxycarbonyl-5-methyl-7H-pyrrolo[2,3-d]pyrimidine] returned a melting point of 107 to 108 °C. Further, the pest or weed control at 1000 g/ha in data set [1] came to 40%. In addition, the pest or weed control at 1000 g/ha in data set [2] was 0%. In addition, the pest or weed control at 1000 g/ha in [3] was determined as 0%. Moreover, in data set [4], the pest or weed control at 1000 g/ha came to 0%. In addition, in data set [5], the pest or weed control at 1000 g/ha is 10%. The pest or weed control at 1000 g/ha in data set [6] amounted to 70%. Also, the pest or weed control at 1000 g/ha in [7] worked out at 0%. In data set [8], the pest or weed control at 1000 g/ha turned out to be 0%. The pest or weed control at 1000 g/ha in data set [9] turned out to be 0%. Besides, the pest or weed control at 1000 g/ha in data set [10] came to 0%. In addition, in data set [11], the pest or weed control at 1000 g/ha amounted to 0%. Also, in [12], the pest or weed control at 1000 g/ha was determined as 0%.
Compound `COC(=O)c1nc(-c2ccc(Cl)c(OC)c2F)nc2c1N(C)CCN2C` [Compound 92-164, 2-(4-chloro-2-fluoro-3-methoxyphenyl)-5,8-dimethyl-4-methoxycarbonyl-5,6,7,8-tetrahydropteridine] displayed a melting point of 97 °C. Besides, the pest or weed control at 1000 g/ha in [1] turned out to be 10%. Moreover, the pest or weed control at 1000 g/ha in data set [2] amounted to 0%. Besides, the pest or weed control at 1000 g/ha in data set [3] was found to be 0%. Moreover, in data set [4], the pest or weed control at 1000 g/ha worked out at 0%. Further, the pest or weed control at 1000 g/ha in [5] was 0%. Further, in [6], the pest or weed control at 1000 g/ha was determined as 0%. The pest or weed control at 1000 g/ha in data set [7] was determined as 0%. Moreover, the pest or weed control at 1000 g/ha in data set [8] amounted to 0%. For the same compound, the pest or weed control at 1000 g/ha in data set [9] was determined as 0%. The pest or weed control at 1000 g/ha in data set [10] turned out to be 0%. For the same compound, the pest or weed control at 1000 g/ha in [11] was found to be 0%. For the same compound, in [12], the pest or weed control at 1000 g/ha was determined as 0%.
In turn, `COC(=O)c1nc(-c2ccc(Cl)c(OC)c2F)nc2c1N(C(C)C)CCN2C(C)C` [Compound 93-166, 2-(4-Chloro-2-fluoro-3-methoxyphenyl)-5,8-diisopropyl-4-methoxy-carbonyl-5,6,7,8-tetrahydropteridine] registered a melting point of 135 °C. Further, the pest or weed control at 1000 g/ha in [1] is 10%. In addition, the pest or weed control at 1000 g/ha in data set [2] was determined as 20%. For the same compound, the pest or weed control at 1000 g/ha in data set [3] stood at 10%. Further, the pest or weed control at 1000 g/ha in [4] is 30%. For the same compound, in data set [5], the pest or weed control at 1000 g/ha was determined as 0%. Also, in data set [6], the pest or weed control at 1000 g/ha was 10%. Further, the pest or weed control at 1000 g/ha in [7] came out at 0%. The pest or weed control at 1000 g/ha in [8] was determined as 0%. Moreover, the pest or weed control at 1000 g/ha in [9] was 0%. The pest or weed control at 1000 g/ha in data set [10] is 0%. Besides, in data set [11], the pest or weed control at 1000 g/ha was determined as 0%. The pest or weed control at 1000 g/ha in data set [12] amounted to 0%.
As to `COC(=O)c1nc(-c2ccc(Cl)c(F)c2)nc2c1n(Cc1ccccc1)c(=O)c(=O)n2Cc1ccccc1` [Compound 95-160, 2-(4-chloro-3-fluorophenyl)-5,8-dibenzyl-6,7-dioxo-4-methoxycarbonyl-5,6,7,8-tetrahydropteridine], the melting point is 211 °C. The pest or weed control at 250 g/ha in [1] (rate 250 g/ha) came out at 30%. Besides, in data set [2] (rate 250 g/ha), the pest or weed control at 250 g/ha is 10%. Also, the pest or weed control at 250 g/ha in [3] (rate 250 g/ha) came to 10%. Besides, the pest or weed control at 250 g/ha in data set [4] (rate 250 g/ha) worked out at 40%. The pest or weed control at 250 g/ha in [5] (rate 250 g/ha) was found to be 20%. In data set [6] (rate 250 g/ha), the pest or weed control at 250 g/ha turned out to be 20%. Further, the pest or weed control at 250 g/ha in data set [7] (rate 250 g/ha) turned out to be 0%. Besides, the pest or weed control at 250 g/ha in [8] (rate 250 g/ha) stood at 0%. For the same compound, the pest or weed control at 250 g/ha in data set [9] (rate 250 g/ha) is 0%. Also, in data set [10] (rate 250 g/ha), the pest or weed control at 250 g/ha is 0%. The pest or weed control at 250 g/ha in data set [11] (rate 250 g/ha) came to 0%. Further, the pest or weed control at 250 g/ha in data set [12] (rate 250 g/ha) is 0%.
`COC(=O)c1nc(-c2ccc(Cl)c(OC)c2F)nc2c1N(Cc1ccccc1)CCN2Cc1ccccc1` [Compound 95-168, 2-(4-Chloro-2-fluoro-3-methoxyphenyl)-5,8-dibenzyl-4-methoxy-carbonyl-5,6,7,8-tetrahydropteridine]: the melting point turned out to be 146 °C. In data set [1], the pest or weed control at 1000 g/ha was 10%. Also, in data set [2], the pest or weed control at 1000 g/ha amounted to 0%. In data set [3], the pest or weed control at 1000 g/ha was determined as 0%. Also, the pest or weed control at 1000 g/ha in data set [4] worked out at 0%. In data set [5], the pest or weed control at 1000 g/ha was determined as 0%. Further, the pest or weed control at 1000 g/ha in [6] is 10%. The pest or weed control at 1000 g/ha in data set [7] was found to be 0%. Besides, the pest or weed control at 1000 g/ha in [8] was determined as 0%. Also, in [9], the pest or weed control at 1000 g/ha turned out to be 0%. Also, in data set [10], the pest or weed control at 1000 g/ha is 0%. Also, the pest or weed control at 1000 g/ha in data set [11] was determined as 0%. Also, in data set [12], the pest or weed control at 1000 g/ha worked out at 0%.
As to `COC(=O)c1nc(C2CC2)nc2c1Nc1ccccc1N2` [Compound 119-28, 2-Cyclo-propyl-4-methoxy-carbonyl-5,10-dihydro-benzo[g] pteridine], the melting point was in the range of 217 to 219 °C. Besides, the pest or weed control at 1000 g/ha in data set [1] is 20%. The pest or weed control at 1000 g/ha in data set [2] was 0%. The pest or weed control at 1000 g/ha in data set [3] is 0%. In addition, the pest or weed control at 1000 g/ha in data set [4] stood at 0%. Also, the pest or weed control at 1000 g/ha in data set [5] came to 20%. The pest or weed control at 1000 g/ha in [6] amounted to 10%. The pest or weed control at 1000 g/ha in [7] stood at 0%. The pest or weed control at 1000 g/ha in data set [8] was determined as 0%. In [9], the pest or weed control at 1000 g/ha was determined as 0%. In addition, the pest or weed control at 1000 g/ha in data set [10] is 0%. The pest or weed control at 1000 g/ha in data set [11] amounted to 0%. For the same compound, the pest or weed control at 1000 g/ha in [12] was 0%.
As for `COC(=O)c1nc(-c2ccc(Cl)c(OC)c2F)nc2ncccc12` [Compound 123-50, 2-(4-chloro-2-fluoro-3-methoxyphenyl)-4-methoxycarbonyl-pyrido[2,3-d]pyrimidine], the melting point lay within 160 to 162 °C. Moreover, in [1], the pest or weed control at 1000 g/ha came to 20%. Further, in [2], the pest or weed control at 1000 g/ha came out at 0%. For the same compound, in data set [3], the pest or weed control at 1000 g/ha was determined as 10%. In addition, the pest or weed control at 1000 g/ha in data set [4] was found to be 10%. In addition, in [5], the pest or weed control at 1000 g/ha stood at 0%. The pest or weed control at 1000 g/ha in [6] worked out at 10%. Besides, in data set [7], the pest or weed control at 1000 g/ha stood at 0%. For the same compound, the pest or weed control at 1000 g/ha in data set [8] came out at 0%. The pest or weed control at 1000 g/ha in data set [9] came out at 0%. Also, the pest or weed control at 1000 g/ha in [10] came out at 0%. The pest or weed control at 1000 g/ha in [11] came out at 0%. Also, the pest or weed control at 1000 g/ha in data set [12] is 0%.
